Assay results from patent US12347214B2, “Microspore culture predictive model generation and use” (PIONEER HI-BRED INTERNATIONAL, INC., priority 2019, dated 2025).

Assays:
[1] = system: AtWOX2pro::CENH3-GFP activity in transgenic canola microspores; experiment: AtWOX2pro::CENH3-GFP reporter activity in canola microspore culture with inducing agent; type: cell-based; settings: with trichostatin A treatment
Text: The methods described above for corn may also be adapted for use with other crops and for use with a reporter gene. As proof of concept, Canola microspore cells were obtained from a plant line that had been transformed with a green fluorescent protein reporter gene fused to a plant developmental gene with an effect on plant histones. While transformation was used in this case, other known gene insertion techniques such as CRISPR may be used to insert the reporter gene into the plant genome. A stable homozygous Canola line with the AtWOX2pro::CENH3-GFP fusion protein was developed. This protein attaches to plant histones, associates with plant chromocenters and can be used to determine chromosome number. GFP served as the reporter gene, although any reporter gene could also be used. This stable transgenic line was used to generate a microspore for in vitro tissue culture. Trichostatin A, a histone deacetylase inhibitor known to alter the embryogenic potential of dicot microspores was used as the inducing agent.

[2] = Dye stability in cell culture conditions; type: physicochemical; settings: supplementation at beginning of culture sufficient until end point of analysis
Text: (§1) In the embodiment described herein, the fluorescent dye BODIPY 564/70, which stains both cell membranes and subcellular compartments, such as vacuoles, was used. […] BODIPY 564/70 is non-toxic to plant cells, so the plant cells continued to develop. BODIPY 564/70 is also very stable in cell culture conditions, so supplementation of the dye at the beginning of the culture was sufficient to generate informative images until the end point of the analysis. Other dyes, combinations of dyes, such as CFDA and FM4-64, and combinations of dyes with fluorescent protein markers, may also be used with the present method in order to generate different images. Options for fluorescent imaging include imaging cells that comprise fluorescent proteins, such as green (GFP), blue (EBFP, EBFP2, Azurite, mKalama1), cyan (ECFP, Cerulean, CyPet, mTurquoise2), red (dsRed, mCherry, tomato, etc.), far-red (mIFP, iBlueberry etc.) and yellow (YFP, Citrine, Venus, YPet). Plant cell stain techniques are known in the art, for example, see Ruzin, S. E. Plant Microtechnique and Microscopy. New York: Oxford University Press. ISBN 0195089561 (1999).

[3] = system: plant cells; experiment: Staining of plant cells with fluorescent dye, continued cell development; type: cell-based; settings: dye added at the beginning of the culture; plant cells continued to develop
Text: as §1

CC(/C=C/C(=O)NO)=C\[C@@H](C)C(=O)c1ccc(N(C)C)cc1 [trichostatin A, Trichostatin A]
detection of AtWOX2pro::CENH3-GFP activity ([1]; first timepoint): no or very low detection
detection of AtWOX2pro::CENH3-GFP activity ([1]; second time point): increased detection

BODIPY 564/70
stability in cell culture conditions [2]: very stable
toxicity to plant cells [3]: non-toxic
